Reference: the supplement of paper PMC10627819

How the values were obtained:
B. subtilis 168 [1] = test: fitness (endpoint OD595 vs no drug) (fraction); higher = more growth
Outline: (§1)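 Cultures at OD595 0.01 were dispensed into 384-well plates in TSB, LB Lennox or CY and incubated at 37 °C. Every 30 min for 14 h, OD595 was read and corrected by the first reading. Fitness is the optical density at entry into stationary phase relative to the robust mean of no-drug control wells, capped at 1.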

S. aureus Newman [2] = test: as above
Outline: as §1

S. pneumoniae D39V [3] = test: as above
Outline: as §1

B. subtilis 168 [4] = test: Bliss interaction score (quartile over a dose matrix) (fitness difference); higher = more antagonism (negative = synergy)
Outline: (§2)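 The Bliss score was calculated by subtracting the expected fitness, the product of single-drug values, from the observed fitness. OD595 at entry into stationary phase, over the plate's robust no-drug mean and capped at 1, served as the fitness readout. Single-drug values were inferred from combination data, and scores are summarised by quartiles across technical, biological and donor/recipient replicates.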

S. aureus DSM 20231 = test: as above
Outline: as §2

S. aureus Newman [5] = test: as above
Outline: as §2

S. pneumoniae D39V [6] = test: as above
Outline: as §2
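Throughout, for Bliss interaction score (quartile over a dose matrix): first quartile when negative (synergy) and third quartile when positive (antagonism).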

CN[C@@H]1[C@H](O)[C@H](NC)[C@H]2O[C@@]3(O)C(=O)C[C@@H](C)O[C@H]3O[C@@H]2[C@H]1O [Spectinomycin] + CN[C@@H]1[C@H](O[C@H]2[C@H](O[C@H]3[C@H](O)[C@@H](O)[C@H](N=C(N)N)[C@@H](O)[C@@H]3N=C(N)N)O[C@@H](C)[C@]2(O)C=O)O[C@@H](CO)[C@H](O)[C@H]1O [Streptomycin]
fitness
Conditions	first compound 2 µg/mL	first compound 4 µg/mL	first compound 8 µg/mL	first compound 16 µg/mL
B. subtilis 168 [1], partner 2 µg/mL	0.928	0.973	0.894	–
B. subtilis 168 [1], partner 4 µg/mL	–	–	0.623	–
B. subtilis 168 [1], partner 8 µg/mL	0.148	0.0533	0.0588	–
S. aureus Newman [2], partner 1 µg/mL	–	0.956	0.943	0.906
S. aureus Newman [2], partner 2 µg/mL	–	0.926	0.975	–
S. pneumoniae D39V [3], partner 2 µg/mL	–	0.946	0.89	–
S. pneumoniae D39V [3], partner 4 µg/mL	–	0.952	0.878	0.83
S. pneumoniae D39V [3], partner 8 µg/mL	–	0.921	0.89	0.822

one replicate
Conditions	fitness
S. aureus Newman [2], first compound 16 µg/mL, partner 8 µg/mL	0.0211
S. aureus Newman [2], first compound 32 µg/mL, partner 2 µg/mL	0.455
S. aureus Newman [2], first compound 32 µg/mL, partner 4 µg/mL	0.342
S. aureus Newman [2], first compound 32 µg/mL, partner 8 µg/mL	0.0569
S. aureus Newman [2], first compound 64 µg/mL, partner 2 µg/mL	0.0619
S. aureus Newman [2], first compound 64 µg/mL, partner 4 µg/mL	0.0473
S. aureus Newman [2], first compound 64 µg/mL, partner 8 µg/mL	0.0327
S. pneumoniae D39V [3], first compound 4 µg/mL, partner 16 µg/mL	0.882
S. pneumoniae D39V [3], first compound 8 µg/mL, partner 16 µg/mL	0.842
S. pneumoniae D39V [3], first compound 16 µg/mL, partner 2 µg/mL	0.84
S. pneumoniae D39V [3], first compound 16 µg/mL, partner 16 µg/mL	0.705

Conditions	Bliss interaction score
B. subtilis 168 [4]	0.0835
S. aureus DSM 20231	0.126
S. aureus Newman [5]	0.0625
S. pneumoniae D39V [6]	0.0931

CN[C@@H]1[C@H](O[C@H]2[C@H](O[C@H]3[C@H](O)[C@@H](O)[C@H](N=C(N)N)[C@@H](O)[C@@H]3N=C(N)N)O[C@@H](C)[C@]2(O)C=O)O[C@@H](CO)[C@H](O)[C@H]1O [Streptomycin] + CN(N=O)C(=O)N[C@@H](C=O)[C@@H](O)[C@H](O)[C@H](O)CO [Streptozotocin]
fitness
Conditions	first compound 1 µg/mL	first compound 2 µg/mL	first compound 4 µg/mL	first compound 8 µg/mL
B. subtilis 168 [1], partner 0.15 µg/mL	–	0.954	0.308	0.0987
B. subtilis 168 [1], partner 0.3 µg/mL	–	0.978	0.332	0.0267
B. subtilis 168 [1], partner 0.6 µg/mL	–	0.98	0.266	0.0223
S. aureus Newman [2], partner 0.15 µg/mL	0.884	0.818	–	–
S. aureus Newman [2], partner 0.3 µg/mL	0.767	0.649	–	–
S. aureus Newman [2], partner 0.6 µg/mL	0.555	0.485	0.473	–
S. pneumoniae D39V [3], partner 1.2 µg/mL	–	0.988	0.975	0.896
S. pneumoniae D39V [3], partner 2.4 µg/mL	–	0.945	0.932	0.951
S. pneumoniae D39V [3], partner 4.8 µg/mL	–	0.954	0.958	0.903

S. pneumoniae D39V [3], first compound 16 µg/mL, one replicate
Conditions	fitness
partner 1.2 µg/mL	0.744
partner 2.4 µg/mL	0.773
partner 4.8 µg/mL	0.782

Conditions	Bliss interaction score
B. subtilis 168 [4]	-0.134
S. aureus DSM 20231	-0.109
S. aureus Newman [5]	0.0357
S. pneumoniae D39V [6]	0.062
